This test relates to gp41-mediated cell–cell fusion. In words: cell–cell fusion. The settings on record: read-out: IC50 in CCF assay. In kind it is cell-based, HIV-1.
Take H2N-Trp-[Trp]-Leu-OH: the concentration for half-maximal inhibition (IC50) is 5 µM.

For the substance H2N-TyrMe-[Trp]-Trp-OH, the half-inhibitory concentration (IC50) fell in the range of 6 to 8 µM.

As for H2N-Asn-[Trp]-Trp-OH, the IC50 lay within 6 to 8 µM.

What is called IC50 is the point on the concentration scale where inhibition reaches its midpoint.

These data come from publication PMC3321071 (Bioorganic & medicinal chemistry letters, 2012).
